Measurements taken from patent publication US20060257368A1, “Devices and methods for improved viability of cells” (Clemson University, priority 2005, published 2006).

Assays:
[1] = system: adult Fischer 344 male rat brains; assay: Adult brain tissue reaction to PNPX loaded HFMs implanted into rat brain (immunohistochemistry); assay type: in vivo; details: constant release into local brain tissue, compared to blank control HFM; anti-GFAP and anti-CSPG staining; FIG. 6
Source text: Following adult central nervous system (CNS) injury, resident cells and blood-derived inflammatory cells become activated and migrate to the lesion site, eventually form a dense glial scar that is believed to play a significant role in inhibiting CNS regeneration. The inhibitory nature of the glial scar is due not only to the existence of inflammatory cell types, but also to the ECM molecules that are derived from them. […] Blocking CSPG biosynthesis may be a potential means to ameliorate CNS glial scar formation. […] CSPG inhibitor 4-nitrophenyl-β-D-xylopyranoside (PNPX) was incorporated into the HFMs during the fabrication process. The inflammatory responses of adult brain tissue to the HFMs with or without PNPX were evaluated and compared.
Polyacrylonitrile/polyvinylchloride copolymer (PAN/PVC) was used as a model non-degradable polymer as a carrier for PNPX delivery, and poly(DL-Lactide-co-glycolide) (PLGA) 50/50 copolymers was employed as a model degradable polymer for PNPX delivery. Polymer-PNPX was dissolved in dimethyl sulfoxide (DMSO). 1% phthalized-chitosan was added into the solution to enhance the PNPX loading efficiency. PNPX loaded HFMs were fabricated using a wet phase-inversion technique. PNPX loading efficiency and releasing profiles were studied in vitro using HPLC. […]

[2] = system: Human umbilical cord stem cells; assay: Survival of stem cells transplanted into brain tissue after exposure to a hypoxia simulating agent; assay type: in vivo; details: cells exposed to 50 uM/ml for 12 hours before transplantation into brain tissue; vs untreated group
Method: Human umbilical cord stem cells were exposed to 50 uM/ml ethyl 3,4-dihydroxybenzoate for 12 hours before transplanted into brain tissue to improve their tolerance to hypoxia condition at the injection site after transplantation procedure. Ethyl 3,4-dihydroxybenzoate can increase glucose uptake and glycolytic metabolism of cells. Increased glucose uptake and glycolytic metabolism is an important compensatory mechanism that allows ATP production to be maintained. Such an approach also increases resistance of the transplanted cells to metabolic poison. The resulting transplanted cells will be adjusted to a deficiency of oxygen and, thus, more resistant to transplantation procedures. The survival rate of the transplanted cells is higher for ethyl 3,4-dihydroxybenzoate treated group than that for untreated group.

Row | Structure (SMILES) | glial scarring response in the vicinity of the PNPX loaded HFM [1] | survival rate of the transplanted cells [2]
1 | O=[N+]([O-])c1ccc(O[C@@H]2OC[C@@H](O)[C@H](O)[C@H]2O)cc1 [PNPX, 4-nitrophenyl-β-D-xylopyranoside] | significantly (P<0.05) suppressed | –
2 | CCOC(=O)c1ccc(O)c(O)c1 [ethyl 3,4-dihydroxybenzoate] | – | higher
